Measurements taken from ChEMBL document CHEMBL4627267, “A novel series of cysteine-dependent, allosteric inverse agonists of the nuclear receptor RORγt” (Bioorg Med Chem Lett, 2020).
Calls of active or inactive are those of the source. The calls are words filed in the database; no cut-off is given here.

Legend:
[1] = molecular target: T1, Nuclear receptor ROR-beta (Homo sapiens) (UniProt Q92753); assay: Inverse agonist activity at human full-length RORbeta expressed in Jurkat cells co-transfected with 5 copies of ROR response element after 18 hrs by luciferase based reporter gene assay; type: cell-based
T1 sequence (whole entry): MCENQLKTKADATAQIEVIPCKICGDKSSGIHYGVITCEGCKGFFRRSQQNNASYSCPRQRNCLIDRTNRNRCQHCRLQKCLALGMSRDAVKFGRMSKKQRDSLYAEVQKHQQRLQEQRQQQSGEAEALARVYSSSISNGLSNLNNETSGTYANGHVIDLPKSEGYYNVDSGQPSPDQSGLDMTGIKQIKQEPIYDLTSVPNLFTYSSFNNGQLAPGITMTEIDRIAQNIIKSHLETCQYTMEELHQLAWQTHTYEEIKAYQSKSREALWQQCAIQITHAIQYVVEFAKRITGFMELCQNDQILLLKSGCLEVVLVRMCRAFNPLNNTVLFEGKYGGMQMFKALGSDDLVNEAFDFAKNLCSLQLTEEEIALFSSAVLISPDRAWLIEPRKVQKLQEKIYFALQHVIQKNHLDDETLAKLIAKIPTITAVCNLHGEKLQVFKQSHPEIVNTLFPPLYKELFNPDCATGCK

Mus musculus [2] = assay: Antiarthritic activity in collagen/complete freund's adjuvant-induced DBA/1 mouse model of arthritis assessed as reduction in paw thickness at 3 mg/kg/day, po administered via gavage starting from 21 day post collagen/CFA challenge and measured up to 42 days; type: functional, organism-based
Mus musculus [3] = assay: Antiarthritic activity in collagen/complete freund's adjuvant-induced DBA/1 mouse model of arthritis assessed as reduction in clinical score at 3 mg/kg/day, po administered via gavage starting from 21 day post collagen/CFA challenge and measured up to 42 days; type: functional, organism-based
[4] = molecular target: T2, Nuclear receptor ROR-alpha (Homo sapiens) (UniProt P35398); assay: Inverse agonist activity at human full-length RORalpha expressed in Jurkat cells co-transfected with 5 copies of ROR response element after 18 hrs by luciferase based reporter gene assay; type: cell-based
T2 sequence (whole entry): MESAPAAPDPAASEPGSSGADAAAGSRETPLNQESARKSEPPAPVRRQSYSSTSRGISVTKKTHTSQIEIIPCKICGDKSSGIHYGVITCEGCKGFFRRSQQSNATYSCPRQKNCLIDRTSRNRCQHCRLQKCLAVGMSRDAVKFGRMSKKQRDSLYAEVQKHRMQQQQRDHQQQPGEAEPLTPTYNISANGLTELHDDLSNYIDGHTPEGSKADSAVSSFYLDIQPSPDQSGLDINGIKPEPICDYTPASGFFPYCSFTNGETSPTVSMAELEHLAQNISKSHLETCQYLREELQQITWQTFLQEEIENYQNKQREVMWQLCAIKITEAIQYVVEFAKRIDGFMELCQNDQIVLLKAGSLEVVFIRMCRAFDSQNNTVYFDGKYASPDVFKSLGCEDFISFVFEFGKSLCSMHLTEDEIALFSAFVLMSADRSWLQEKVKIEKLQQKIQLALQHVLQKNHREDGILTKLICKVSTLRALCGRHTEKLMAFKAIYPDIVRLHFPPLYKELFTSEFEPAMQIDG

[5] = Cytotoxicity against human CD4-positive T cells assessed as reduction in cell viability at 100 nM; type: cell-based; settings: 0.1 µM

SMILES	Activity [1]	Activity (Mus musculus [2])	Activity (Mus musculus [3])	Activity [4]	Activity [5] [%]
Cc1cc(-c2nc(-c3ccc(F)cc3)c3c(n2)[C@]2(C)C=C(C#N)C(=O)[C@H](C)[C@H]2CC3)ccn1	inactive	Active	Active	inactive	10 to 15
CCC[C@H]1C(=O)C(C#N)=C[C@@]2(C)c3nc(-c4ccnc(C5CC5)c4)nc(-c4ccccc4F)c3CC[C@H]12	inactive	–	–	inactive	–
